# Literature values in US20140017301A1, “DRUG-FREE COMPOSITIONS AND METHODS FOR DIMINISHING PERIPHERAL INFLAMMATION AND PAIN” (priority 2011, published 2014).
# Details: excipients of Table 3
row,Compound,log P
1,"CC1(C)C(=O)N(CO)C(=O)N1CO [1,3-Dimethylol-5,5-dimethylhydantoin]",0.6
2,O=C(O)CNCO [2-(hydroxymethylamino)acetic adic],−2.2
3,"CCCCOC(=O)c1ccc(O)cc1 [Butyl 4-hydroxybenzoate; butylparabene, Butyl 4-hydroxybenzoate]",3.07
4,"COc1ccc(O)c(C(C)(C)C)c1 [Butylated hydroxyanisole, BHA, Butylated hydroxyanisole]",3.13
5,CC(=O)C1C(=O)C=C(C)OC1=O (stereo not shown) [Dehydroacetic acid],−0.05
6,OCCOc1ccccc1 [Phenoxyethanol],1.26
7,OCCc1ccccc1 [Phenylethanol],1.61
8,NC(N)=S [Thiourea],−0.96
9,Propanediol,−0.71
10,Tocopherol,9.76

# The remaining lines, values ahead:
row,log P,Compound
1,1.08,"O=c1[nH]sc2ccccc12 [1,2-benzothiazol-3-one]"
2,2.12,"Cc1cc(O)c(C)c(C)c1O [2,3,5-trimethylbenzene-1,4-diol]"
3,−0.06,"Cn1sccc1=O [2-methyl-1,2-thiazol-3-one]"
4,−0.57,"OCC(O)CS (stereo not shown) [3-sulfanylpropane-1,2-diol]"
5,4.81,"CCCCCCOc1cc(C)c(O)c(C)c1C [4-hexoxy-2,3,6-trimethylphenol, HTHQ, 4-hexoxy-2,3,6-trimethylphenol]"
6,0.44,"O=[N+]([O-])C1(Br)COCOC1 [5-Bromo-5-nitro-1,3-dioxane, bronidox, 5-Bromo-5-nitro-1,3-dioxane]"
7,3.21,"Cc1ccc(C(C)C)c(O)c1 [6-isopropyl-m-cresol; thymol, 6-isopropyl-m-cresol]"
8,0.87,"CC(=O)OC1CC(C)OC(C)O1 (stereo not shown) [(2,6-dimethyl-1,3-dioxan-4-yl) acetate]"
9,1.23,OCc1ccccc1 [Benzyl alcohol]
10,−3.2,"O=C1C(N(CO)C(=O)NCO)N(CO)C(=O)N1CO (stereo not shown) [Diazodinyl Urea (Germall II), Diazodinyl Urea]"
11,2.16,"CCOC(=O)c1ccc(O)cc1 [Ethyl 4-hydroxybenzoate; ethylparabene, Ethyl 4-hydroxybenzoate]"
12,1.72,"COC(=O)c1ccc(O)cc1 [Methyl 4-hydroxybenzoate; methylparabene, Methyl 4-hydroxybenzoate]"
13,2.63,"CCCOC(=O)c1ccc(O)cc1 [Propyl 4-hydroxybenzoate; propylparabene, Propyl 4-hydroxybenzoate]"
14,1.38,C/C=C/C=C/C(=O)O [Sorbic acid]
15,3.67,Benzalkonium
